The values that follow come from publication PMC8152814, “The modulatory role of sulfated and non-sulfated small molecule heparan sulfate-glycomimetics in endothelial dysfunction: absolute structural clarification, molecular docking and simulated dynamics, SAR analyses and ADMET studies” (RSC Medicinal Chemistry, 2021).

In one data set the target is T1, hERG (Homo sapiens, UniProt Q12809).
T1 construct: host or cells: CHO cells stably transfected with hERG
The data set can be described thus: hERG automated patch clamp (IonWorks, CHO-hERG cells). The class given is cell-based. As to conditions: CHO cells stably transfected with hERG, top concentration 25 µM. As to the method:
Physicochemical and ADMET properties of representative glycomimetics. […] The final incubation volume is 50 µL. […] Two control compounds are included with each species. All incubations are performed singularly for each test compound. […] The control (minus NADPH) is incubated for 45 min. […] The cells are then positioned over a small hole at the bottom of each well by applying a vacuum beneath the plate to form an electrical seal. The vacuum is applied through a single compartment common to all wells which is filled with intracellular solution (buffered to pH 7.2 with HEPES). The resistance of each seal is measured via a common ground-electrode in the intracellular compartment and individual electrodes placed into each of the upper wells. Electrical access to the cell is then achieved by circulating a perforating agent, amphotericin B, underneath the PatchPlateTM. The pre-compound hERG current is then measured. An electrode is positioned in the extracellular compartment and a holding potential of -80 mV applied for 15 s. The hERG channels are then activated by applying a depolarising step to +40 mV for 5 s and then clamped at -50 mV for 4 s to elicit the hERG tail current, before returning to -80 mV for 0.3 s. […]

A short description of data set [1]: Caco-2 permeability (bi-directional). The class given is in vitro ADME. As to conditions: human, Caco-2; A2B, 10 µM, 120 min. As to the method: Physicochemical and ADMET properties of representative glycomimetics. […]
ymax = mean vehicle control response
Caco-2 Permeability (A-B or Bi-directional)
Caco-2 cells (ATCC, Virginia, USA) are used between passage numbers 40-60. Cells are seeded onto Millipore Multiscreen Transwell plates at 1 x 10^5 cells/cm2. The cells are cultured in DMEM and media is changed every two or three days. On day 20 the permeability study is performed. Cell culture and assay incubations are carried out at 37 °C in an atmosphere of 5 % CO2 with a relative humidity of 95%. On the day of the assay, the monolayers are prepared by rinsing both apical and basolateral surfaces twice with Hanks Balanced Salt Solution (HBSS) at the desired pH warmed to 37 °C. Cells are then incubated with HBSS at the desired pH in both apical and basolateral compartments for 40 min to stabilise physiological […]
The dosing solutions are prepared by diluting test compound with assay buffer to give a final test compound concentration of 10 µM (final DMSO concentration of 1 % v/v). The fluorescent integrity marker lucifer yellow is also included in the dosing solution. Analytical standards are prepared from test compound DMSO dilutions and transferred to buffer, maintaining a 1% v/v DMSO concentration. Typical assay buffer is composed of supplemented HBSS pH 7.4 but a range of other buffers and pH values can be used.
For assessment of A-B permeability, HBSS is removed from the apical compartment and replaced with test compound dosing solution. The apical compartment insert is then placed into a companion plate containing fresh buffer (containing 1 % v/v DMSO). For assessment of B-A permeability, HBSS is removed from the companion plate and replaced with test compound dosing solution. Fresh buffer (containing 1 % v/v DMSO) is added to the apical compartment insert, which is then placed into the companion plate.
At 120 min the apical compartment inserts and the companion plates are separated and apical and basolateral samples diluted for analysis. Test compound permeability is assessed in duplicate. Compounds of known permeability characteristics are run as controls on each assay plate. Test and control compounds are quantified by LC-MS/MS cassette analysis using an 8-point calibration with appropriate dilution of the samples. The starting concentration (C0) is determined from the dosing solution and the experimental recovery calculated from C0 and both apical and basolateral compartment concentrations.
The integrity of the monolayer throughout the experiment is checked by monitoring lucifer yellow permeation using fluorimetric analysis. Lucifer yellow permeation is high if monolayers have been damaged. If a lucifer yellow Papp value is above a pre-defined threshold in one individual test compound well, the compound may be re-tested or an n = 1 result is reported.
If lucifer yellow Papp values are above the threshold in both replicate wells for a test compound, the compound is re-tested. If this re-occurs upon repeat in both wells then toxicity or inherent fluorescence of the test compound is assumed.
The permeability coefficient (Papp) for each compound is calculated from the following […]
Where dQ/dt is the rate of permeation of the drug across the cells, C0 is the donor compartment concentration at time zero and A is the area of the cell monolayer. C0 is obtained from analysis […]
For bi-directional experiments, an efflux ratio (ER) is calculated from mean A-B and B-A data.
Three control compounds are screened alongside the test compounds, atenolol (human absorption 50%), propranolol (human absorption 90%) and talinolol (a substrate for […]
In general terms: Caco-2 cells form a polarised layer with tight junctions and transporters.

The nature of the next data set: in vitro. As to conditions: mouse, microsomes, pH 7.4.

T1 sequence (Q12809 whole entry): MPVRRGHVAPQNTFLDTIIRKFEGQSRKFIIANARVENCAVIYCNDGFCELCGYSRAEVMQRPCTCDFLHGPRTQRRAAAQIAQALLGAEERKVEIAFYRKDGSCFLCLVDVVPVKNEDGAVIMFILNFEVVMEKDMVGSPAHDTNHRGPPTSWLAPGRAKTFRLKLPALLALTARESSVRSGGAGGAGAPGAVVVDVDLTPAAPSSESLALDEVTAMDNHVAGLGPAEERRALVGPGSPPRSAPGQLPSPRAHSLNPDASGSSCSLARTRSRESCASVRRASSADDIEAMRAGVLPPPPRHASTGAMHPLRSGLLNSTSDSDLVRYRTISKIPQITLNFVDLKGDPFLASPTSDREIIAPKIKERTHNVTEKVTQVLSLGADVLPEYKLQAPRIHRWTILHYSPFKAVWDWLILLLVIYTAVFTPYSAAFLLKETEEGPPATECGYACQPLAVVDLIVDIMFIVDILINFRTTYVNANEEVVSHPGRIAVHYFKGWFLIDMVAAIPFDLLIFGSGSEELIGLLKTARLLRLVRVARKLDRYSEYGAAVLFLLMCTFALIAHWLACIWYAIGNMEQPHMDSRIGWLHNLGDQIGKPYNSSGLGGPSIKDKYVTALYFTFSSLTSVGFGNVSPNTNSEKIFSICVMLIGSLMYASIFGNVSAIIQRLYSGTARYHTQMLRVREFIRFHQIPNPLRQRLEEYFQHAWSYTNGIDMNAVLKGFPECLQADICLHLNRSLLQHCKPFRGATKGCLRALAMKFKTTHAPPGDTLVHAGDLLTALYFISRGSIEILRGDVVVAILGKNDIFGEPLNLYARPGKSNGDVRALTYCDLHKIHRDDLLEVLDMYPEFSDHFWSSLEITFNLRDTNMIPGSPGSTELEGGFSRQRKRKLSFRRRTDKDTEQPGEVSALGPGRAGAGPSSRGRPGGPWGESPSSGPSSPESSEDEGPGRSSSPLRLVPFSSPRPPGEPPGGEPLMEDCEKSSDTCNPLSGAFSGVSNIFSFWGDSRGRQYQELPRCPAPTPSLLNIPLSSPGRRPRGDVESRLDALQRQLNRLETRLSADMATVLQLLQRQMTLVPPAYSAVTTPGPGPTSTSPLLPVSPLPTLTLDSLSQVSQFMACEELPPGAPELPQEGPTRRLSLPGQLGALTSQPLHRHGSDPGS
Description for in vitro: MLM assay (controls: diphenhydramine and diazepam). hERG assay (controls: quinidine and dimethylsulfoxide).
Microsomal Metabolic Stability
Pooled liver microsomes (final protein concentration 0.5 mg/mL), 0.1 M phosphate buffer pH
7.4 and test compound (final substrate concentration 3 µM; final DMSO concentration 0.25 %)
are pre-incubated at 37 °C prior to the addition of NADPH (final concentration 1 mM) to initiate
the reaction. The final incubation volume is 50 µL. A minus cofactor control incubation is
included for each compound tested where 0.1 M phosphate buffer pH 7.4 is added instead of
NADPH (minus NADPH). Two control compounds are included with each species. All incubations are performed singularly for each test compound. Each compound is incubated for 0, 5, 15, 30 and 45 min. The control (minus NADPH) is incubated for 45 min. The reactions
are stopped by transferring 20 µL of incubate to 60 µL methanol at the appropriate time points.
The termination plates are centrifuged at 2,500 rpm for 20 min at 4 °C to precipitate the protein.
Following protein precipitation, the sample supernatants are combined in cassettes of up to 4
compounds, internal standard is added and samples analysed using Cyprotex generic
LC-MS/MS conditions. From a plot of ln peak area ratio (compound peak area /internal
standard peak area) against time, the gradient of the line is determined. Subsequently, half-
life and intrinsic clearance are calculated using the equations below:
Elimination rate constant (k) = (- gradient)
Intrinsic clearance (CLint)(µL/min/mg protein) = where V = Incubation volume (µL)/Microsomal protein (mg)
Relevant control compounds are assessed, ensuring intrinsic clearance values fall within the
specified limits (if available).

Broadly, the IC50 is the concentration at which inhibition is half-maximal. `O=C([O-])c1cc(OC[C@H](COS(=O)(=O)[O-])OS(=O)(=O)[O-])ccc1OCC(COS(=O)(=O)[O-])OS(=O)(=O)[O-].[Na+].[Na+].[Na+].[Na+].[Na+]` (mixture of isomers) [β-5, sodium 5-((R)-2,3-bis(sulfonatooxy)propoxy)-2-(2,3-bis(sulfonatooxy)propoxy)benzoate] returned an IC50 against hERG of over 25 µM.
For orientation: Papp A→B means how fast a substance crosses the layer from the apical side. Turning to `COC(=O)c1cc(OC[C@H](COS(=O)(=O)[O-])OS(=O)(=O)[O-])ccc1OCCCCOS(=O)(=O)[O-].[Na+].[Na+].[Na+]` [Compound R-10, sodium (R)-3-(3-(methoxycarbonyl)-4-(4-(sulfonatooxy)butoxy)phenoxy)propane-1,2-diyl bis(sulfate)], the IC50 at 300 s against hERG (human, pH 7.2) was over 25 µM. Moreover, the Papp A→B at 2 h, 10 µM in data set [1] stood at 0.931 ×10⁻⁶ cm/s.
Broadly, the half-life is how long it takes for the measured level to halve. A high value points to slow decline. In “in vitro”, `COC(=O)c1cc(OC[C@@H](COS(=O)(=O)[O-])OS(=O)(=O)[O-])ccc1OCCCCOS(=O)(=O)[O-].[Na+].[Na+].[Na+]` [Compound S-10, sodium (S)-3-(3-(methoxycarbonyl)-4-(4-(sulfonatooxy)butoxy)phenoxy)propane-1,2-diyl bis(sulfate)] returned a half-life at 0.75 h, 3 µM of 69.3 h.
